Tests used:
Assay type in all cases: cell-based
[1] = molecular target: human TLR7 (Homo sapiens (Human), UniProt Q9NYK1); test: TLR7 inhibition reporter assay (HEK-Blue, SEAP); conditions: HEK-Blue cells overexpressing human TLR7, gardiquimod 7.5 μM stimulation
Summary of the method: (§1)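 Reporter cells, NF-κB/AP-1-driven SEAP; cmpd 0.05 nM–50 μM final, 30 min RT pre-treat; stim gardiquimod 7.5 μM (TLR7), R848 15.9 μM (TLR8), ODN2006 5 nM (TLR9); 22 h 37 °C; % inhibition of SEAP signal.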

[2] = molecular target: human TLR8 (Homo sapiens (Human), UniProt Q9NR97); test: TLR8 inhibition reporter assay (HEK-Blue, SEAP); conditions: HEK-Blue cells overexpressing human TLR8, R848 15.9 μM stimulation
Chain of human TLR8 (Q9NR97 27-1041): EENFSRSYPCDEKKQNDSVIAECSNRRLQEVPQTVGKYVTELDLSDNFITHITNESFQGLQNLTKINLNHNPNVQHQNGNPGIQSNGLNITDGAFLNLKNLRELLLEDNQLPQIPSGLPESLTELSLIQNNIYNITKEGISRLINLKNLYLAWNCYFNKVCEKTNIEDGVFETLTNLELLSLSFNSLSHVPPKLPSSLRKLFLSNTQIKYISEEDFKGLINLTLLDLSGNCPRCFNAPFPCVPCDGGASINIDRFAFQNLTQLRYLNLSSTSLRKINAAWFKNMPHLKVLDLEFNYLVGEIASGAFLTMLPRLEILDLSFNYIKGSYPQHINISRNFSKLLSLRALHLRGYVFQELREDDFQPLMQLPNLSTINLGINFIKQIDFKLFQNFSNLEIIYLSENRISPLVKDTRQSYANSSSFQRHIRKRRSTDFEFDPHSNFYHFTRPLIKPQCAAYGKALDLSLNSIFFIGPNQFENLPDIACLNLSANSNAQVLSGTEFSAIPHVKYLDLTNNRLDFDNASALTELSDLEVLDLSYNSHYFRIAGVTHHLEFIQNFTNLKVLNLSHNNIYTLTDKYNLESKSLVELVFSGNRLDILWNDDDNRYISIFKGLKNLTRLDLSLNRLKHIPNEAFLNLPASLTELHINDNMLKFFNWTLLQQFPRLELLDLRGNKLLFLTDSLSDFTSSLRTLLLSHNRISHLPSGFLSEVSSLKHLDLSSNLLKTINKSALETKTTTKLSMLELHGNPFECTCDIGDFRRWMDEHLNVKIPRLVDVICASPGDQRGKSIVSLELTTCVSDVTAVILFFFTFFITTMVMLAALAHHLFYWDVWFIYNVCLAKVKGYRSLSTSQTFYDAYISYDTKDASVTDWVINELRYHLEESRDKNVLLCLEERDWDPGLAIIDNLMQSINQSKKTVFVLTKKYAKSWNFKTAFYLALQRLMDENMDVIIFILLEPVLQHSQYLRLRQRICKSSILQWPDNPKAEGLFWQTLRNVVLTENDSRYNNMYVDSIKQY
Summary of the method: as §1

[3] = molecular target: human TLR9 (Homo sapiens (Human), UniProt Q9NR96); test: TLR9 inhibition reporter assay (HEK-Blue, SEAP); conditions: HEK-Blue cells overexpressing human TLR9, ODN2006 5 nM stimulation
Chain of human TLR9 (Q9NR96 26-1032): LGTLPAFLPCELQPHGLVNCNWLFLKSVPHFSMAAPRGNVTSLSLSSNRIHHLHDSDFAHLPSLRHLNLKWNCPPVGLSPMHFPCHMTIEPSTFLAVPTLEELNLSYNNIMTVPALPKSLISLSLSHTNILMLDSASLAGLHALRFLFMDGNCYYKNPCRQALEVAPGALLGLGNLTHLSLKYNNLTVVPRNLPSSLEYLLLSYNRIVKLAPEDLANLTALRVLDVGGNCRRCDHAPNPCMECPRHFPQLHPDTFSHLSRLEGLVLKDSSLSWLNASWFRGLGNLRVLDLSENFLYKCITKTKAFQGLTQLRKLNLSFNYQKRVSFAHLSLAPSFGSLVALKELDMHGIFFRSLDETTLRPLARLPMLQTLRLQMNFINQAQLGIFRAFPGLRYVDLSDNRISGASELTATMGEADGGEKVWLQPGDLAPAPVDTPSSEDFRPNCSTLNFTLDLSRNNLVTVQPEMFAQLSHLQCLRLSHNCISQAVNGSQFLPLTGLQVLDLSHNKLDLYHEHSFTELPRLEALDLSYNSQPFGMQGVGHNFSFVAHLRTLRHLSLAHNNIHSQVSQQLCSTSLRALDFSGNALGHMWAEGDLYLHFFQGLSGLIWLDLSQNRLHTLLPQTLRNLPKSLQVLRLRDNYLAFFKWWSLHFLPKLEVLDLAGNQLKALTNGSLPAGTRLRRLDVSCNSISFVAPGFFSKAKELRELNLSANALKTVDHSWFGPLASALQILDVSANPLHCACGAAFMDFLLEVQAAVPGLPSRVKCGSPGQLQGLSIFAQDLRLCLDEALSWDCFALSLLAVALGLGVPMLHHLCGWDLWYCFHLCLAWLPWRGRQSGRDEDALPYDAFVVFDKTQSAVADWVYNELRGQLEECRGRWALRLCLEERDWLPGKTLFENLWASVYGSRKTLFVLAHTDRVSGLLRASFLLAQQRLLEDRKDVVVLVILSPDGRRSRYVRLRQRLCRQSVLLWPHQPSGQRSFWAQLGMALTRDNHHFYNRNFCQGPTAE
Summary of the method: as §1

Chain of human TLR7 (Q9NYK1 27-1049): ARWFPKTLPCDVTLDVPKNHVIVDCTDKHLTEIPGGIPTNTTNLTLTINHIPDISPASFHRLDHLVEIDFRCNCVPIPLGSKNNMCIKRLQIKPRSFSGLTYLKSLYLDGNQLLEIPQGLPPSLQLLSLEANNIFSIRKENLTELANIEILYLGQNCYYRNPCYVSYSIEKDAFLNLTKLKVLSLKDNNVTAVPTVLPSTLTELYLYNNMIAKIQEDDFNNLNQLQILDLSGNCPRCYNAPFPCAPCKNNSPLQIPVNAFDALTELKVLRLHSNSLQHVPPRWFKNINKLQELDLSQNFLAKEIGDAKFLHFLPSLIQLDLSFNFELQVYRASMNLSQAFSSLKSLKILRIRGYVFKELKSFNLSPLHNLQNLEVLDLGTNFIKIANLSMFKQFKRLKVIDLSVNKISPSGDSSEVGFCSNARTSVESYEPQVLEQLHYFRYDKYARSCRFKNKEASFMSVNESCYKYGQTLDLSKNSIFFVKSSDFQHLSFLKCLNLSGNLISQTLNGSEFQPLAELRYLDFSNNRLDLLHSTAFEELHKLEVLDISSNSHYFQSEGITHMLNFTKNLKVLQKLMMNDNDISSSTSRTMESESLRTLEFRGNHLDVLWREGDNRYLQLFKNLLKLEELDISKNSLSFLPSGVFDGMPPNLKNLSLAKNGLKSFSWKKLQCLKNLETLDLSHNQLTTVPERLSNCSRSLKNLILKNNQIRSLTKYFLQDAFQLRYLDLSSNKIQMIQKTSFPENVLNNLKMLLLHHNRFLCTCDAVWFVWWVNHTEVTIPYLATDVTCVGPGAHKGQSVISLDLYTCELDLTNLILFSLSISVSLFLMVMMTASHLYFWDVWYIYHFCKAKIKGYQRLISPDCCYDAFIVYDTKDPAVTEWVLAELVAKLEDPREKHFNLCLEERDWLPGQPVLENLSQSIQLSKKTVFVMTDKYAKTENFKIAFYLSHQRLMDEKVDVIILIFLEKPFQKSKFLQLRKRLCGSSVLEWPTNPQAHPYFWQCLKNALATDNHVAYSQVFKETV

Structure (SMILES) | IC50 [1] | IC50 [2] | IC50 [3]
Cc1cc(-c2[nH]c3ccc(-c4nnc(C(=O)NC5CCN(C(C)C)CC5)s4)cc3c2C(C)C)ccn1 [Example 135, 5-(3-isopropyl-2-(2-methylpyridin-4-yl)-1H-indol-5-yl)-N-(1-isopropylpiperidin-4-yl)-1,3,4-thiadiazole-2-carboxamide] | 44 nM | 7.8 nM | 1380 nM
COc1ccc(-c2[nH]c3ccc(-c4ccc5c(c4)CCNC5)cc3c2C(C)C)cc1OC [Example 136, 6-(2-(3,4-dimethoxyphenyl)-3-isopropyl-1H-indol-5-yl)-1,2,3,4-tetrahydroisoquinoline] | 57 nM | 38 nM | 6880 nM
Cc1cc(-c2[nH]c3ccc(-c4nnc(C(=O)NC5CCNC5)s4)cc3c2C(C)C)ccn1 (stereo not drawn) [Example 137, 5-(3-isopropyl-2-(2-methylpyridin-4-yl)-1H-indol-5-yl)-N-(pyrrolidin-3-yl)-1,3,4-thiadiazole-2-carboxamide] | 29 nM | 2.7 nM | 705 nM
Cc1cc(-c2[nH]c3ccc(-c4nnc(CC5CCCCN5)o4)cc3c2C(C)C)ccn1 (stereo not drawn) [Example 138, 2-(3-isopropyl-2-(2-methylpyridin-4-yl)-1H-indol-5-yl)-5-(piperidin-2-ylmethyl)-1,3,4-oxadiazole] | 26 nM | 1.4 nM | 542 nM
Cc1cc(-c2[nH]c3ccc(-c4nnc([C@@H]5CCNC5)o4)cc3c2C(C)C)ccn1 [Example 139, (R)-2-(3-isopropyl-2-(2-methylpyridin-4-yl)-1H-indol-5-yl)-5-(pyrrolidin-3-yl)-1,3,4-oxadiazole] | 28 nM | 2.8 nM | 523 nM
Cc1cc(-c2[nH]c3ccc(-c4nnc(CN5CCNCC5)o4)cc3c2C(C)C)ccn1 [Example 140, 2-(3-isopropyl-2-(2-methylpyridin-4-yl)-1H-indol-5-yl)-5-(piperazin-1-ylmethyl)-1,3,4-oxadiazole] | 67 nM | 5.2 nM | 468 nM
Cc1cc(-c2[nH]c3ccc(-c4nnc(Cn5ccnc5)o4)cc3c2C(C)C)ccn1 [Example 141, 2-((1H-imidazol-1-yl)methyl)-5-(3-isopropyl-2-(2-methylpyridin-4-yl)-1H-indol-5-yl)-1,3,4-oxadiazole] | 192 nM | 27 nM | > 50000 nM
CNCCc1nnc(-c2ccc3[nH]c(-c4ccnc(C)c4)c(C(C)C)c3c2)o1 [Example 142, 2-(5-(3-isopropyl-2-(2-methylpyridin-4-yl)-1H-indol-5-yl)-1,3,4-oxadiazol-2-yl)-N-methylethan-1-amine] | 25 nM | 1.7 nM | 621 nM
Cc1cc(-c2[nH]c3ccc(-c4nnc(CCN(C)C)o4)cc3c2C(C)C)ccn1 [Example 143, 2-(5-(3-isopropyl-2-(2-methylpyridin-4-yl)-1H-indol-5-yl)-1,3,4-oxadiazol-2-yl)-N,N-dimethylethan-1-amine] | 47 nM | 0.8 nM | 1680 nM
Cc1cc(-c2[nH]c3ccc(-c4nnc(Cc5c[nH]cn5)o4)cc3c2C(C)C)ccn1 [Example 144, 2-((1H-imidazol-4-yl)methyl)-5-(3-isopropyl-2-(2-methylpyridin-4-yl)-1H-indol-5-yl)-1,3,4-oxadiazole] | 258 nM | 17 nM | > 50000 nM
Cc1cc(-c2[nH]c3ccc(-c4nnc(C[C@H]5CCCN5)o4)cc3c2C(C)C)ccn1 [Example 145, (R)-2-(3-isopropyl-2-(2-methylpyridin-4-yl)-1H-indol-5-yl)-5-(pyrrolidin-2-ylmethyl)-1,3,4-oxadiazole] | 34 nM | 1 nM | 633 nM
Cc1cc(-c2[nH]c3ccc(-c4nnc([C@H]5CCNC5)o4)cc3c2C(C)C)ccn1 [Example 146, (S)-2-(3-isopropyl-2-(2-methylpyridin-4-yl)-1H-indol-5-yl)-5-(pyrrolidin-3-yl)-1,3,4-oxadiazole] | 15 nM | 3 nM | 651 nM
COc1ccc(-c2[nH]c3ccc(-c4nc(C(=O)NC5CCN(C(C)C)CC5)cs4)cc3c2C(C)C)cc1OC [Example 147, 2-(2-(3,4-dimethoxyphenyl)-3-isopropyl-1H-indol-5-yl)-N-(1-isopropylpiperidin-4-yl)thiazole-4-carboxamide] | 192 nM | 20 nM | 2250 nM
CC(C)c1c(-c2ccnc3[nH]ncc23)[nH]c2ccc(-c3nnc(CNC4CC4)o3)cc12 [Example 148, N-((5-(3-isopropyl-2-(1H-pyrazolo[3,4-b]pyridin-4-yl)-1H-indol-5-yl)-1,3,4-oxadiazol-2-yl)methyl)cyclopropanamine] | 945 nM | 37 nM | > 50000 nM
CC(C)c1c(-c2ccnc3[nH]ncc23)[nH]c2ccc(-c3nnc(CNCC(C)(C)C)o3)cc12 [Example 149, N-((5-(3-isopropyl-2-(1H-pyrazolo[3,4-b]pyridin-4-yl)-1H-indol-5-yl)-1,3,4-oxadiazol-2-yl)methyl)-2,2-dimethylpropan-1-amine] | 7280 nM | 50 nM | > 50000 nM
CC(C)c1c(-c2ccnc3[nH]ncc23)[nH]c2ccc(-c3nnc(CNCC#N)o3)cc12 [Example 150, 2-(((5-(3-isopropyl-2-(1H-pyrazolo[3,4-b]pyridin-4-yl)-1H-indol-5-yl)-1,3,4-oxadiazol-2-yl)methyl)amino)acetonitrile] | 2240 nM | 378 nM | > 50000 nM
CC(C)c1c(-c2ccnc3[nH]ncc23)[nH]c2ccc(-c3nnc(CNC45CC6CC(CC(C6)C4)C5)o3)cc12 [Example 151, N-((5-(3-isopropyl-2-(1H-pyrazolo[3,4-b]pyridin-4-yl)-1H-indol-5-yl)-1,3,4-oxadiazol-2-yl)methyl)adamantan-1-amine] | 5340 nM | 18 nM | > 50000 nM
CC(C)c1c(-c2ccnc3[nH]ncc23)[nH]c2ccc(-c3nnc(CN4CCOCC4)o3)cc12 [Example 152, 4-((5-(3-isopropyl-2-(1H-pyrazolo[3,4-b]pyridin-4-yl)-1H-indol-5-yl)-1,3,4-oxadiazol-2-yl)methyl)morpholine] | 2330 nM | 471 nM | > 50000 nM
CC(=O)N1CCN(Cc2nnc(-c3ccc4[nH]c(-c5ccnc6[nH]ncc56)c(C(C)C)c4c3)o2)CC1 [Example 153, 1-(4-((5-(3-isopropyl-2-(1H-pyrazolo[3,4-b]pyridin-4-yl)-1H-indol-5-yl)-1,3,4-oxadiazol-2-yl)methyl)piperazin-1-yl)ethan-1-one] | 1570 nM | 138 nM | > 50000 nM
CC(C)c1c(-c2ccnc3[nH]ncc23)[nH]c2ccc(-c3nnc(CN(C)C(C)C)o3)cc12 [Example 154, N-((5-(3-isopropyl-2-(1H-pyrazolo[3,4-b]pyridin-4-yl)-1H-indol-5-yl)-1,3,4-oxadiazol-2-yl)methyl)-N-methylpropan-2-amine] | 1410 nM | 31 nM | > 50000 nM
CC(=O)N1CCCN(Cc2nnc(-c3ccc4[nH]c(-c5ccnc6[nH]ncc56)c(C(C)C)c4c3)o2)CC1 [Example 155, 1-(4-((5-(3-isopropyl-2-(1H-pyrazolo[3,4-b]pyridin-4-yl)-1H-indol-5-yl)-1,3,4-oxadiazol-2-yl)methyl)-1,4-diazepan-1-yl)ethan-1-one] | 1420 nM | 127 nM | > 50000 nM
CC(C)c1c(-c2ccnc3[nH]ncc23)[nH]c2ccc(-c3nnc(CN4CCNC(=O)C4)o3)cc12 [Example 156, 4-((5-(3-isopropyl-2-(1H-pyrazolo[3,4-b]pyridin-4-yl)-1H-indol-5-yl)-1,3,4-oxadiazol-2-yl)methyl)piperazin-2-one] | 1410 nM | 212 nM | > 50000 nM
CC(C)c1c(-c2ccnc3[nH]ncc23)[nH]c2ccc(-c3nnc(CN4CC[C@@H](N(C)C)C4)o3)cc12 [Example 157, (R)-1-((5-(3-isopropyl-2-(1H-pyrazolo[3,4-b]pyridin-4-yl)-1H-indol-5-yl)-1,3,4-oxadiazol-2-yl)methyl)-N,N-dimethylpyrrolidin-3-amine] | 314 nM | 18 nM | 4480 nM
CC(C)c1c(-c2ccnc3[nH]ncc23)[nH]c2ccc(-c3nnc(CN4CCC[C@H]4C(N)=O)o3)cc12 [Example 158, (S)-1-((5-(3-isopropyl-2-(1H-pyrazolo[3,4-b]pyridin-4-yl)-1H-indol-5-yl)-1,3,4-oxadiazol-2-yl)methyl)pyrrolidine-2-carboxamide] | 1380 nM | 174 nM | > 50000 nM
Cc1cc(-c2[nH]c3ccc(-c4nnc(C5CCCN(C)C5)o4)cc3c2C(C)C)ccn1 (stereo not drawn) [Example 159, 2-(3-isopropyl-2-(2-methylpyridin-4-yl)-1H-indol-5-yl)-5-(1-methylpiperidin-3-yl)-1,3,4-oxadiazole] | 24 nM | 1.8 nM | 1230 nM
CC(C)c1c(-c2ccnc(N)c2)[nH]c2ccc(-c3nc(C(=O)NC4CCN(C(C)C)CC4)co3)cc12 [Example 160, 2-(2-(2-aminopyridin-4-yl)-3-isopropyl-1H-indol-5-yl)-N-(1-isopropylpiperidin-4-yl)oxazole-4-carboxamide] | 120 nM | 23 nM | 3930 nM
COc1ccc(-c2[nH]c3ccc(-c4ccc5c(c4)NCCC5)cc3c2C(C)C)cc1OC [Example 161, 7-(2-(3,4-dimethoxyphenyl)-3-isopropyl-1H-indol-5-yl)-1,2,3,4-tetrahydroquinoline] | 2930 nM | 1980 nM | 5000 nM

Source: patent publication US11420958B2, “Aryl and heteroaryl substituted indole compounds” (BRISTOL-MYERS SQUIBB COMPANY, priority 2017, dated 2022)
